According to patent US20200046703A1, “COMPOSITIONS AND METHODS FOR TREATMENT OF THE SIDE-EFFECTS ASSOCIATED WITH ADMINISTRATION OF THERAPEUTIC AGENTS” (ASYMMETRIC THERAPEUTICS, LLC, priority 2018, published 2020):
Converted amounts (≈) assume the structure as drawn. One block for each molecule: values may come before it.

Experiments:
proliferating HPEK cells = experiment: Proliferating HPEK cell viability with/without 5-FU; format: cell-based, human; details: for relative cell viability (AVG): 120 hours; for Relative Protection against 5-FU toxicity / Relative Growth in the presence of 5-FU: HPEK proliferating cells; for Relative Protection against 5-FU toxicity: fraction of viability loss prevented; for Relative Growth in the presence of 5-FU: viability with 5-FU divided by viability without 5-FU
Method: (§1) In another set of experiments, the results of which are shown in Table 2, proliferating HPEK cells, commonly used to assess skin tissue toxicity, were exposed to the clinically-relevant dose of 10 μM of 5-FU and different concentrations of oxypurinol, either alone or with different concentrations of adenine or uracil, using standard tissue culture methods and incubated at 37° C. Oxypurinol concentrations of 0.03 mM, 0.1 mM, and 0.3 mM were tested. Adenine and uracil concentrations of 0.1 mM and 0.3 mM were tested. The relative viability of the cells was determined after 120 hours.

confluent NHEK cells = experiment: Confluent NHEK cell viability with/without 5-FU; format: cell-based, human; details: for relative cell viability (AVG): 120 hours; for Relative Protection against 5-FU toxicity: fraction of viability loss prevented
Method: In yet another set of experiments, the results of which are shown in Table 4, confluent NHEK cells were exposed to the clinically-relevant dose of 10 μM of 5-FU and different concentrations of sodium hydroxide, oxypurinol, or allopurinol using standard tissue culture methods and incubated at 37° C. Sodium hydroxide concentrations of 1 mM, 2 mM, 3 mM, and 4 mM were tested. Oxypurinol and allopurinol concentrations of 0.1 mM, 0.3 mM, 1.0 mM, and 3.0 mM were tested, both in the presence and in the absence of 10 μM of 5-FU. The relative viability of the cells was determined after 120 hours. The sodium hydroxide trials were only performed to serve as a control.

proliferating HGEP cells = experiment: Proliferating HGEP cell viability with/without 5-FU; format: cell-based, human; details: for relative cell viability (AVG): 120 hours
Method: as §1, with “one” for “another”, “1,” for “2,”, “HGEP” for “HPEK”, “oral mucosal” for “skin tissue”

Solubility of oxypurinol = format: physicochemical; details: in vitro; in the protective formulation; read-out: maximum in vitro solubility / upper limit of solubility
marrow cells = details: about a 30-fold excess; in patients; cited from earlier work
confluent HPEK cells = experiment: Confluent HPEK cell viability with/without 5-FU; format: cell-based, human; details: for relative cell viability (AVG): 120 hours; for Relative Protection against 5-FU toxicity / Relative Growth in the presence of 5-FU: HPEK confluent cells; for Relative Protection against 5-FU toxicity: fraction of viability loss prevented; for Relative Growth in the presence of 5-FU: viability with 5-FU divided by viability without 5-FU
Method: Oxypurinol and allopurinol concentrations of 0.3 mM, 1.0 mM, and 3.0 mM, which are ten times higher than those used in the first set of experiments, were tested. An adenine concentration of 0.3 mM, which was the higher concentration used in the first set of experiments, was tested. The relative viability of the cells was determined after 120 hours.

[1] = concentrations of 0.1 mM and 0.3 mM
[2] = 0.3 mM, with 5-FU 10 μM, listed as oxypurinol
[3] = 1.0 mM, with 5-FU 10 μM, listed as oxypurinol
[4] = 3.0 mM, with 5-FU 10 μM, listed as oxypurinol

- solubility (Solubility of oxypurinol): ~3000 µM (≈ 456 µg/mL)
Structure (SMILES): O=c1nc2[nH][nH]cc-2c(=O)[nH]1 [Oxypurinol, oxypurinol]
- relative cell viability (AVG) (proliferating HPEK cells; 0.03 mM, no 5-FU): 1.0763
- relative cell viability (AVG) (proliferating HPEK cells; 0.03 mM, with 5-FU 10 μM): 0.6903
- relative cell viability (AVG) (proliferating HPEK cells; 0.1 mM, no 5-FU): 0.7961
- relative cell viability (AVG) (proliferating HPEK cells; 0.1 mM, with 5-FU 10 μM): 0.7961
- relative cell viability (AVG) (proliferating HPEK cells; 0.3 mM, no 5-FU): 1.0201
- relative cell viability (AVG) (proliferating HPEK cells; 0.3 mM, with 5-FU 10 μM): 0.8635
- Relative Protection against 5-FU toxicity (proliferating HPEK cells; 0.03 mM): 0.1133
- Relative Growth in the presence of 5-FU (proliferating HPEK cells; 0.03 mM): 0.6414
- Relative Protection against 5-FU toxicity (proliferating HPEK cells; 0.1 mM): 0.4163
- Relative Growth in the presence of 5-FU (proliferating HPEK cells; 0.1 mM): 1.0000
- Relative Protection against 5-FU toxicity (proliferating HPEK cells; 0.3 mM): 0.6092
- Relative Growth in the presence of 5-FU (proliferating HPEK cells; 0.3 mM): 0.8465
- effect on cell viability in the presence of 5-FU (proliferating HPEK cells; [1]): protective effect
- effect on cell viability in the absence of 5-FU (proliferating HPEK cells; range of 0.03 mM to 0.3 mM): minimal effect
- effect on cell viability in the presence of 5-FU (confluent NHEK cells; 0.1 mM to 3.0 mM): protective effect
- relative cell viability (AVG) (confluent NHEK cells; 0.1 mM, no 5-FU): 0.8884
- relative cell viability (AVG) (confluent NHEK cells; 0.1 mM, with 5-FU 10 μM): 0.5818
- relative cell viability (AVG) (confluent NHEK cells; 0.1 mM, with 5-FU 10 μM, listed as oxypurinol): 0.58
- relative cell viability (AVG) (confluent NHEK cells; 0.3 mM, no 5-FU): 0.9059
- relative cell viability (AVG) (confluent NHEK cells; 0.3 mM, with 5-FU 10 μM): 0.5881
- relative cell viability (AVG) (confluent NHEK cells; [2]): 0.59
- relative cell viability (AVG) (confluent NHEK cells; 1.0 mM, no 5-FU): 0.9580
- relative cell viability (AVG) (confluent NHEK cells; 1.0 mM, with 5-FU 10 μM): 0.5965
- relative cell viability (AVG) (confluent NHEK cells; [3]): 0.60
- Relative Growth in the presence of 5-FU (confluent NHEK cells; 3.0 mM, NHEK, FIG. 2): over 73%
- relative cell viability (AVG) (confluent NHEK cells; 3.0 mM, no 5-FU): 0.9784
- relative cell viability (AVG) (confluent NHEK cells; 3.0 mM, with 5-FU 10 μM): 0.7165
- relative cell viability (AVG) (confluent NHEK cells; [4]): 0.72
- protection from 5-FU toxicity compared with allopurinol (confluent NHEK cells; NHEK cells, FIG. 2, across the range of tested concentrations): significantly better
- Relative Protection against 5-FU toxicity (confluent NHEK cells; NHEK, 0.1 mM): 0.2834
- Relative Growth in the presence of 5-FU (confluent NHEK cells; NHEK, 0.1 mM, viability with 5-FU divided by viability without 5-FU): 0.6549
- Relative Protection against 5-FU toxicity (confluent NHEK cells; NHEK, 0.3 mM): 0.2941
- Relative Growth in the presence of 5-FU (confluent NHEK cells; NHEK, 0.3 mM, viability with 5-FU divided by viability without 5-FU): 0.6492
- Relative Protection against 5-FU toxicity (confluent NHEK cells; NHEK, 1.0 mM): 0.3085
- Relative Growth in the presence of 5-FU (confluent NHEK cells; NHEK, 1.0 mM, viability with 5-FU divided by viability without 5-FU): 0.6226
- Relative Protection against 5-FU toxicity (confluent NHEK cells; NHEK, 3.0 mM): 0.5142
- Relative Growth in the presence of 5-FU (confluent NHEK cells; NHEK, 3.0 mM, viability with 5-FU divided by viability without 5-FU): 0.7323
- oxypurinol toxicity (confluent NHEK cells; NHEK, up to about 3 mM): no evidence of oxypurinol toxicity
- effect on cell viability in the absence of 5-FU (confluent NHEK cells; range of 0.1 mM to 3.0 mM): small negative effect
- relative cell viability (AVG) (proliferating HGEP cells; 0.03 mM, no 5-FU): 0.8792
- relative cell viability (AVG) (proliferating HGEP cells; 0.03 mM, with 5-FU 10 μM): 0.6441
- relative cell viability (AVG) (proliferating HGEP cells; 0.1 mM, no 5-FU): 0.7134
- relative cell viability (AVG) (proliferating HGEP cells; 0.1 mM, with 5-FU 10 μM): 0.7540
- relative cell viability (AVG) (proliferating HGEP cells; 0.3 mM, no 5-FU): 0.6367
- relative cell viability (AVG) (proliferating HGEP cells; 0.3 mM, with 5-FU 10 μM): 0.8925
- effect on cell viability in the absence of 5-FU (proliferating HGEP cells; 0.03 to 0.3 mM): negative effect
- effect on cell viability in the presence of 5-FU (proliferating HGEP cells; [1]): protective effect
- protection of marrow cells from 5-FU toxicity (marrow cells): completely protect marrow cells from 5-FU toxicity
- relative cell viability (AVG) (confluent HPEK cells; 0.3 mM, no 5-FU): 1.0183
- relative cell viability (AVG) (confluent HPEK cells; 0.3 mM, with 5-FU 10 μM): 0.7226
- relative cell viability (AVG) (confluent HPEK cells; [2]): 0.72
- relative cell viability (AVG) (confluent HPEK cells; 1.0 mM, no 5-FU): 1.0706
- relative cell viability (AVG) (confluent HPEK cells; 1.0 mM, no 5-FU, listed as oxypurinol): 1.07
- relative cell viability (AVG) (confluent HPEK cells; 1.0 mM, with 5-FU 10 μM): 0.7509
- relative cell viability (AVG) (confluent HPEK cells; [3]): 0.75
- relative cell viability (AVG) (confluent HPEK cells; 3.0 mM, no 5-FU): 0.8351
- relative cell viability (AVG) (confluent HPEK cells; 3.0 mM, no 5-FU, listed as oxypurinol): 0.835
- relative cell viability (AVG) (confluent HPEK cells; 3.0 mM, with 5-FU 10 μM): 0.8147
- relative cell viability (AVG) (confluent HPEK cells; [4]): 0.81
- protection from 5-FU toxicity compared with allopurinol (confluent HPEK cells; HPEK cells, FIG. 1, across the range of tested concentrations): significantly better
- Relative Protection against 5-FU toxicity (confluent HPEK cells; 0.3 mM): 0.2249
- Relative Growth in the presence of 5-FU (confluent HPEK cells; 0.3 mM): 0.7096
- Relative Protection against 5-FU toxicity (confluent HPEK cells; 1.0 mM): 0.3039
- Relative Growth in the presence of 5-FU (confluent HPEK cells; 1.0 mM): 0.7013
- Relative Protection against 5-FU toxicity (confluent HPEK cells; 3.0 mM): 0.4822
- Relative Growth in the presence of 5-FU (confluent HPEK cells; 3.0 mM): 0.9755
- oxypurinol toxicity (confluent HPEK cells; HPEK, up to about 3 mM): no evidence of oxypurinol toxicity
- effect on cell viability in the presence of 5-FU (confluent HPEK cells; concentration range of 0.3 mM to 3.0 mM): protective effect
- preservation of growth, with versus without 5-FU (confluent HPEK cells; oxypurinol at 3 mM, 5-FU 10 μM): 97.5%

Structure (SMILES): O=c1cc[nH]c(=O)[nH]1 [Uracil, uracil, reference compound]
- relative cell viability (AVG) (proliferating HPEK cells; 0.1 mM, with 5-FU 10 μM): 0.6479
- relative cell viability (AVG) (proliferating HPEK cells; 0.3 mM, with 5-FU 10 μM): 0.6350
- relative cell viability (AVG) (proliferating HGEP cells; 0.1 mM, with 5-FU 10 μM): 0.6060
- relative cell viability (AVG) (proliferating HGEP cells; 0.3 mM, with 5-FU 10 μM): 0.5182
- relative cell viability (AVG) (confluent HPEK cells; 0.3 mM, no 5-FU): 1.3781
- relative cell viability (AVG) (confluent HPEK cells; 0.3 mM, with 5-FU 10 μM): 0.6482
